Measurements as given in patent publication US20260273046A1, “METHOD OF VACCINATING FOR CANCER AND DEVICE AND KIT THEREFOR” (priority 2023, published 2026).

What was measured:
[1] = test system: OVA; assay: ELISA of serum OVA-specific IgG, IgG1, IgG2c titers; format: in vivo, C57BL/6J mice; conditions: 10 days after second i.d. vaccination with OVA
Method: (§1) For all experiments, six- to eight-week-old female C57BL/6J mice were purchased from the Jackson Laboratory (Bar Harbor, ME). They were housed in ventilated cages with ad libitum access to food and water, with three to four animals per box. The room was kept at 20±2° C. and 50±15% relative humidity, with a light/dark cycle of 12 hours. An acclimatization period of one week was given to the mice before the onset of the experiments. The Purdue University Animal Care and Use Committee gave approval to all animal experiments. Mice received 20 μl of vaccine through intradermal injection into the pinna of the ear. The vaccines were administered again after 7 or 21 days. Inhalational isoflurane was used to induce anesthesia in mice. Blood and tissue samples were collected 10 days after the second immunization, unless otherwise specified.
OVA-specific IgG, IgG1, and IgG2c titers were measured by enzyme-linked immunosorbent assays (ELISA) on serum samples taken 10 days following the second vaccination, as previously reported (Hernandez-Franco (2021)). […] The reaction was stopped with the addition of 50 μl 2 M sulfuric acid, and absorbance at 450 nm (OD 450) was determined using the Synergy HT microplate reader (BioTek, Winooski, VT). End-point titers for OVA-specific antibodies were determined when the dilution at which OD 450 nm approached 0.2. […]

[2] = test system: tumor-specific CD8+ T cells; conditions: intratumoral injection; cited from earlier work
[3] = test system: recurrent or metastatic head and neck squamous cell carcinoma; conditions: in conjunction with pembrolizumab; cited from earlier work
[4] = test system: IRF3 signaling pathway; assay: IRF-Lucia luciferase reporter in THP1-Dual cells; format: cell-based, human; conditions: Nano-11 80 μg/ml, ADU-S100 5 μg/ml; FIG. 1F
Method: (§2) For preparation of cells for activation in vitro, human THP-1 cells (TIB-202; American Type Culture Collection Manassas, VA) were cultured in complete RPMI (RPMI 1640 supplemented with 2 mM L-glutamine, 55 μM β-mercaptoethanol, 1×non-essential amino acids, 10 mM HEPES, 100 U/ml penicillin, 100 μg/ml streptomycin, and 0.25 μg/ml amphotericin) with 10% FBS. Cells were seeded at a density of 5×10^5 cells/well in a 96-well plate, stimulated with Nano-11 (80 μg/ml) and ADU-S100 (5 μg/ml) for 24 hours and 48 hours at 37° C. with 5% CO2, and then processed for flow cytometry analysis. Similarly, the NF-κB-SEAP and IRF-Luc reporter THP1-Dual cells (InvivoGen, San Diego, CA) were grown at a density of 1×10^5 cells/well in a 96-well plate in complete RPMI supplemented with 10% FBS, 100 μg/ml zeocin, 100 μg/ml normocin, and 10 μg/ml blasticidin. THP1-Dual cells were subsequently stimulated with Nano-11 (80 μg/ml) and ADU-S100 (5 μg/ml) for 24 hours and 48 hours at 37° C. with 5% CO2, and the supernatants were collected for NF-κB and IRF pathway activation quantification.

[5] = test system: metastatic solid tumors or lymphomas; conditions: intra-tumoral injection, patients; cited from earlier work
[6] = test system: NF-κB signaling pathway; assay: NF-κB-SEAP reporter in THP1-Dual cells; format: cell-based, human; conditions: Nano-11 80 μg/ml, ADU-S100 5 μg/ml; FIG. 1E
Method: as §2

[7] = test system: GC B cells and follicular helper T (Tfh) cells; assay: Intradermal immunization with OVA: draining lymph node, GC B cells and Tfh cells; format: in vivo, C57BL/6J mice; conditions: 10 days after second i.d. injection of the ear pinna
Method: as §1
(§3) For flow cytometry analysis, single-cell suspensions were prepared from isolated splenocytes or lymph nodes and washed with Cell Staining Buffer (CSB; BioLegend, San Diego, CA). The staining protocols were conducted in accordance with the manufacturer's instructions, and unless otherwise specified, all mAbs were obtained from BioLegend. […] Flow cytometry was conducted using an Attune NxT flow cytometer (Invitrogen, Waltham, MA), and the data were analyzed using FlowJo software (FlowJo, Ashland, OR).

[8] = test system: SIINFEKL-specific B3Z CD8+ T cell hybridoma; assay: B3Z antigen cross-presentation assay with DC2.4 cells; format: cell-based, murine; conditions: OVA with 80 μg/ml Nano-11 and/or 5 μg/ml ADU-S100; OD 590
Method: The B3Z CD8^+ T cell hybridoma cell line that expresses β-galactosidase under the control of the IL-2 promoter was utilized to detect antigen cross-presentation of the OVA 257-264 (SIINFEKL, InvivoGen, San Diego, CA) peptide (see Cruz et al., Annu. Rev. Immunol. 35: 149-176 (2017), which is incorporated herein by reference). Briefly, DC2.4 cells at 1×10^5 cells/well on 96-well round bottom plates were cultured in complete RPMI containing 10% FBS. The DC2.4 cells were stimulated with 10, 100, or 1,000 μg/ml OVA adsorbed to 80 μg/ml Nano-11 or the NanoST nanoparticle adjuvant comprised of 80 μg/ml Nano-11 and 5 μg/ml ADU-S100 (NanoST) for 3 hours at 37° C. with 5% CO2. Cells in media only or treated with 0.5 μg/ml OVA 257-264 (SIINFEKL) served as negative and positive controls, respectively. The cells were centrifuged at 300×g for 5 minutes and then washed three times with 200 μl of sterile PBS/0.1% BSA. Following fixation with 200 μl of phosphate-buffered saline (PBS)/0.2% paraformaldehyde for 15 minutes at 4° C., cells were washed twice with complete RPMI. Each well was seeded with 1×10^5 B3Z cells in complete RPMI containing 10% FBS for 16 hours at 37° C. with 5% CO2. […] After 2, 4, 6, 8, 12, and 24 hours, the conversion of […] was quantified by measuring the absorbance at 590 nm (OD 590) using a microplate reader (BioTek Instruments, Winooski, VT).

[9] = test system: human STING alleles; conditions: cited from earlier work
[10] = test system: human THP-1 cells; assay: CD80 and CD86 expression on stimulated THP-1 cells (flow cytometry); format: cell-based; conditions: Nano-11 80 μg/ml, ADU-S100 5 μg/ml, 24 and 48 hours
Method: as §2, with “Similarly, the NF-κB-SEAP and IRF-Luc reporter THP1-Dual cells (InvivoGen, San Diego, CA) were grown at a density of 1×10^5 cells/well in a 96-well plate in complete RPMI supplemented with 10% FBS, 100 μg/ml zeocin, 100 μg/ml normocin, and 10 μg/ml blasticidin.” left out
as §3, with “CA).” for “CA). The staining protocols were conducted in accordance with the manufacturer's instructions, and unless otherwise specified, all mAbs were obtained from BioLegend.”

[11] = test system: B16-OVA melanoma cells; assay: Preventive intradermal vaccination, B16-OVA tumor challenge; format: in vivo, C57BL/6J mice; conditions: two i.d. immunizations, three-week interval, then s.c. inoculation
Method: (§4) The efficacy of preventive cancer vaccines was investigated by two intradermal injections with OVA, Nano-11+OVA, NanoST+OVA, or PBS with a 21-day interval. Eleven days following the second injection, mice were inoculated subcutaneously in the flank with 1.0×10^6 B16-OVA, B16, or 2.5×10^6 E.G7-OVA cells suspended in 100 μl of PBS. […] Using a caliper, the length (maximum longitudinal dimension) and width (maximum transverse dimension) of the subcutaneous tumor were measured in order to determine the approximate volume. Tumor volume was calculated using the ellipsoidal formula: V=½×(Length×Width^2). Each tumor was measured by three observers to account for interobserver variability. The tumor endpoint measurements were taken when the tumors reached a volume of 2,000 mm^3, when the tumors became ulcerated, when the body condition scores dropped below 2, or when the mice became moribund. Mice without palpable tumors 32 days after tumor inoculation were considered tumor-free and euthanized.
(§5) To evaluate the contribution of CD4^+ and CD8^+ T cells response to prophylactic-mediated vaccine protection against B16-OVA and E.G7-OVA tumor formation, C57BL/6J mice were vaccinated with OVA, Nano-11+OVA, or NanoST+OVA, and 21 days later the vaccination was repeated. […] The tumor growth and survival of mice were monitored for 33 days post-tumor inoculation.

[12] = test system: E.G7-OVA lymphoma cells; assay: Preventive intradermal vaccination, E.G7-OVA tumor challenge; format: in vivo, C57BL/6J mice; conditions: two i.d. immunizations, three-week interval, then s.c. inoculation
Method: as §4, §5

[13] = test system: E.G7-OVA tumors; assay: Therapeutic intradermal vaccination of E.G7-OVA-bearing mice; conditions: by day 10
Method: (§6) To mimic therapeutic immunotherapy, C57BL/6J mice were injected subcutaneously (s.c.) with 1.0×10^6 B16-OVA or 2.5×10^6 E.G7-OVA cells on day 0 to establish the tumor model. The B16-OVA-bearing mice received the same intradermal prophylactic vaccination (OVA, Nano-11+OVA, or NanoST+OVA) 8 days after tumor inoculation, followed by a second injection on day 15. The identical vaccination regimen was administered to E.G7-OVA-26 bearing mice at 1 and 21 days after tumor inoculation. The tumor endpoint measurements were recorded as described under prophylactic cancer vaccines. Mice without visible tumors were deemed tumor-free and euthanized 32 or 33 days post-tumor inoculation.

[14] = test system: B16-OVA tumors; assay: Therapeutic intradermal vaccination of B16-OVA-bearing mice; format: in vivo, C57BL/6J mice; conditions: i.d. vaccination at 8 and 15 days post-tumor inoculation
Method: as §6

Q: Which results are given for `Nc1ncnc2c1ncn2[C@@H]1O[C@@H]2COP(=O)([S-])O[C@@H]3[C@H](O)[C@@H](COP([O-])(=S)O[C@H]2[C@H]1O)O[C@H]3n1cnc2c(N)ncnc21.[Na+].[Na+]` (stereo partly drawn) [ADU-S100]?
A: anti-OVA IgG1 titer [1]: enhanced anti-OVA total IgG and IgG1 titers; anti-OVA total IgG titer [1]: enhanced anti-OVA total IgG and IgG1 titers; generation of tumor-specific CD8+ T cells [2]: leads to the generation of tumor-specific CD8; adverse reactions [3]: no adverse reactions; anti-tumor efficacy [3]: only modest anti-tumor efficacy; IRF3 activation [4]: activated NF-κB and IRF3; anti-tumor activity [5]: failed to demonstrate conclusive evidence of anti-tumor activity; dose-limiting toxicities [5]: no dose-limiting toxicities; NF-κB activation [6]: activated NF-κB and IRF3; size of draining lymph node (superficial parotid) [7]: enlarged draining lymph node; cross-presentation of OVA and activation of B3Z CD8+ T cells by DC2.4 cells [8]: decreased the cross-presentation of OVA; affinity to human STING alleles [9]: superior affinity to all known human STING alleles; CD80 expression ([10]; FIGS. 1A, 1C): induced CD80 expression; CD86 expression ([10]; FIGS. 1B, 1D): neither of which had any effect on CD86 expression

Q: Which “development of B16-OVA tumors” value [11] does the source give for “OVA: endotoxin-free ovalbumin, model tumor-specific antigen, given unadjuvanted” here?
A: positive for tumors

Q: What about the “development of E.G7-OVA lymphomas” value [12] of the same compound?
A: positive for tumors

Q: And the tumor formation [13]?
A: 100%

Q: What about the “survival of B16-OVA tumor-bearing mice” value [14] of the same compound?
A: none of the OVA-vaccinated mice survived to day 20
